Experiments:
Format in all cases: cell-based, human
[1] = tested on: hES-3-MC aggregates (agitation culture); assay: DoE: hematopoietic precursor generation, 14 days in Blast growth medium (BGM); conditions: BMP4 10 to 50 ng/ml, Activin A 0-80 ng/ml, CHIR exposure 0 to 24 hours, 2 weeks in BGM
Method: (§1) Different doses (and/or duration of exposure) of cytokines and small-molecules with known roles in inducing mesoderm and hematopoietic differentiation were evaluated using the MODDE® software for differentiation of hES-3 MC aggregate cultures initially derived under agitation. The DoE was designed to investigate effects of BMP4 (10-50 ng/ml), Activin A (0 to 80 ng/ml), CHIR (0-15 μM at 0 to 48 hours after start of mesoderm induction). These variables generated 29 culture conditions (FIG. 2A), which were tested for their effects on percent of KDR+ cells (4 days post initiation of differentiation) and the following stage of hematopoietic precursors generation (2 weeks of culture in Blast growth medium (BGM)).
(§2) Design of experiments (DoE) using a resolution IV Fractional Factorial Design was performed using the MODDE software (Sartorius Stedim Biotech, Germany) to evaluate initial BMP4, Activin A and CHIR-99021, doses and duration of exposure for their effects on the following response factors: induction of KDR+ cells 4 days post mesoderm induction or total hematopoietic precursors generated 2 weeks post differentiation. […] Computed model with R2 scores>0.5 indicate a model of significant fit, Q2 scores>0.1 indicate a significant model while Q2>0.5 indicate a good model for estimation of future prediction precision, model validity score of <0.25 indicate statistically significant model problems and reproducibility (the variation of the replicates compared to overall variability) should be greater than 0.5.
Human pluripotent stem cell-microcarrier (HPSC-MC) aggregates (derived from 7 day continuous agitation conditions), equivalent to 5×10^5 cells, were seeded and differentiated in 24-well ultra-low attachment plates with Stemline II medium using multi-factorial conditions as detailed in FIG. 2A and FIG. 6A, as well as in Table 3. […]
Following 4 days of differentiation, single cells were derived from microcarrier aggregates by treatment with TrypLE. […] Fold-expansion was calculated as total number of cells derived after 2 weeks as compared to initial seeding of 1×10^5 cells.

hES-3 hESC line = assay: CHIR dose: hematopoietic/erythroid differentiation of agitated hPSC-MC aggregates; conditions: optimal dose of CHIR-99021, day 4
[2] = tested on: hES-3 microcarrier aggregates; assay: BMP4-based vs CHIR-based differentiation: erythroblasts output per hPSC seeded
Source text: Six conditions were then chosen for the detailed study; conditions 1, 2 and 4 were based on BMP4/Activin A protocols, while conditions 7, 16 and 18 were CHIR-mediated protocols (Table 1).

[3] = tested on: hES-3-MC aggregates (agitation culture); assay: DoE multifactorial mesoderm induction: % KDR+ cells by flow cytometry; conditions: BMP4 10 to 50 ng/ml, Activin A 0-80 ng/ml, CHIR exposure 0 to 24 hours, 4 days post initiation of differentiation
Method: as §1
Design of experiments (DoE) using a resolution IV Fractional Factorial Design was performed using the MODDE software (Sartorius Stedim Biotech, Germany) to evaluate initial BMP4, Activin A and CHIR-99021, doses and duration of exposure for their effects on the following response factors: induction of KDR+ cells 4 days post mesoderm induction or total hematopoietic precursor cells generated 2 weeks post differentiation.
as §2, with “0.5. […]” for “0.5.”

[4] = hES-3 microcarrier aggregates derived from agitation condition
[5] = hES-3 microcarrier aggregates derived from static condition

| Molecule | effect of factor on hematopoietic precursor generation (DoE) [1] | Mesoderm induction % KDR+ PDGFRα− (hES-3 hESC line) [%] | erythroblasts output per human pluripotent stem cell seeded [2, 4] | erythroblasts output per human pluripotent stem cell seeded [2, 5] | effect of factor on percent of KDR+ cells (DoE) [3] |
| --- | --- | --- | --- | --- | --- |
| Cc1c[nH]c(-c2cnc(NCCNc3ccc(C#N)cn3)nc2-c2ccc(Cl)cc2Cl)n1 [CHIR-99021, 6-[[2-[[4-(2,4-Dichlorophenyl)-5-(5-methyl-1H-imidazol-2-yl)-2-pyrimidinyl]amino]ethyl]amino]-3-pyridinecarbonitrile] | significant increase | 14.6 | 8.0±2.1 | 11.5±2.6 | significant increase |
| BMP4: bone morphogenic protein; BMP4-based protocol uses 50 ng/ml BMP4 (protein, UniProt P12644 293-408, looked up) Bone morphogenetic protein 4: SPKHHSQRARKKNKNCRRHSLYVDFSDVGWNDWIVAPPGYQAFYCHGDCPFPLADHLNSTNHAIVQTLVNSVNSSIPKACCVPTELSAISMLYLDEYDKVVLKNYQEMVVEGCGCR | did not significantly alter |  | 1.2±0.7 | 7.7±1.9 | did not significantly alter |

— US12104173B2, “Method for differentiation of human pluripotent stem cell lines in suspension culture” (AGENCY FOR SCIENCE, TECHNOLOGY AND RESEARCH, priority 2018, dated 2024)
